# Experiments:
# large (Lg) crabgrass [1] = assay: Test A postemergence; type: in vivo, Digitaria sanguinalis
# Summary of the method: (§1)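 Visual injury scored 0–100 (100 = complete control) against untreated controls about 10 days after treatment in a greenhouse. Test chemicals, formulated with surfactant in non-phytotoxic solvent, were sprayed on soil preemergence or on 2-10 cm, one- to two-leaf plants postemergence.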
# Heteranthera limosa = assay: Test B flooded paddy test; type: in vivo; conditions: Flood, 250 g ai/ha; 0 to 100 scale where 0 is no effect and 100 is complete control
# Summary of the method: (§2)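 Evaluation is visual, against untreated controls, 13 to 15 days after treatment. Before treatment, plants reached the 2-leaf stage; pots were then flooded 3 cm deep, compound was added to the water, and that level was maintained. Ratings run 0 to 100, with 100 meaning complete control.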
# pigweed [2] = assay: Test A preemergence; type: in vivo, Amaranthus retroflexus; conditions: for Pigweed plant response rating (0 to 100 scale): 125 g ai/ha
# Summary of the method: as §1
# morningglory [3] = assay: Test A postemergence; type: in vivo, Ipomoea spp.
# Summary of the method: as §1
# rice = assay: Test B flooded paddy test; type: in vivo, Oryza sativa; conditions: Flood, 250 g ai/ha; 0 to 100 scale where 0 is no effect and 100 is complete control
# Summary of the method: as §2
# morningglory [4] = assay: Test A preemergence; type: in vivo, Ipomoea spp.; conditions: for Morningglory plant response rating (0 to 100 scale): 125 g ai/ha
# Summary of the method: as §1
# corn [5] = assay: Test A postemergence; type: in vivo, Zea mays
# Summary of the method: as §1
# sedge, umbrella = assay: Test B flooded paddy test; type: in vivo, Cyperus difformis; conditions: Flood, 250 g ai/ha; 0 to 100 scale where 0 is no effect and 100 is complete control
# Summary of the method: as §2
# velvetleaf [6] = assay: Test A postemergence; type: in vivo, Abutilon theophrasti
# Summary of the method: as §1
# barnyardgrass [7] = assay: Test A preemergence; type: in vivo, Echinochloa crus-galli; conditions: for Barnyardgrass plant response rating (0 to 100 scale, 0 is no effect, 100 is complete control): 125 g ai/ha
# Summary of the method: as §1
# barnyardgrass [8] = assay: Test B flooded paddy test; type: in vivo, Echinochloa crus-galli; conditions: Flood, 250 g ai/ha; 0 to 100 scale where 0 is no effect and 100 is complete control
# Summary of the method: as §2
# pigweed [9] = assay: Test A postemergence; type: in vivo, Amaranthus retroflexus
# Summary of the method: as §1
# large (Lg) crabgrass [10] = assay: Test A preemergence; type: in vivo, Digitaria sanguinalis; conditions: for Crabgrass, Large plant response rating (0 to 100 scale): 125 g ai/ha
# Summary of the method: as §1
# giant foxtail [11] = assay: Test A postemergence; type: in vivo, Setaria faberii
# Summary of the method: as §1
# giant foxtail [12] = assay: Test A preemergence; type: in vivo, Setaria faberii; conditions: for Foxtail, Giant plant response rating (0 to 100 scale): 125 g ai/ha
# Summary of the method: as §1
# wheat [13] = assay: Test A postemergence; type: in vivo, Triticum aestivum
# Summary of the method: as §1
# wheat [14] = assay: Test A preemergence; type: in vivo, Triticum aestivum; conditions: for Wheat plant response rating (0 to 100 scale): 125 g ai/ha
# Summary of the method: as §1
# velvetleaf [15] = assay: Test A preemergence; type: in vivo, Abutilon theophrasti; conditions: for Velvetleaf plant response rating (0 to 100 scale): 125 g ai/ha
# Summary of the method: as §1
# corn [16] = assay: Test A preemergence; type: in vivo, Zea mays; conditions: for Corn plant response rating (0 to 100 scale): 125 g ai/ha
# Summary of the method: as §1
# barnyardgrass [17] = assay: Test A postemergence; type: in vivo, Echinochloa crus-galli
# Summary of the method: as §1
# [18] = 125 g ai/ha, 0 to 100 scale, 0 no effect, 100 complete control
# [19] = 500 g ai/ha, 0 to 100 scale where 0 is no effect and 100 is complete control
# [20] = 1000 g ai/ha, 0 to 100 scale, 0 no effect, 100 complete control
# [21] = 1000 g ai/ha, 0 to 100 scale, 0 no effect, 100 complete control, approx. 10 days
Structure (SMILES),"Plant response rating, Crabgrass, Large (large (Lg) crabgrass [1]; [18])","Plant response rating, Crabgrass, Large (large (Lg) crabgrass [1]; [19])","Plant response rating, Ducksalad (Heteranthera limosa)",Pigweed plant response rating (0 to 100 scale) (pigweed [2]),Pigweed plant response rating (pigweed [2]; [19]),"Plant response rating, Morningglory (morningglory [3]; [18])","Plant response rating, Morningglory (morningglory [3]; [19])","Plant response rating, Rice (rice)",Morningglory plant response rating (0 to 100 scale) (morningglory [4]),Morningglory plant response rating (morningglory [4]; [19]),"Plant response rating, Corn (corn [5]; [18])","Plant response rating, Corn (corn [5]; [19])","Plant response rating, Sedge, Umbrella (sedge, umbrella)","Plant response rating, Velvetleaf (velvetleaf [6]; [18])","Plant response rating, Velvetleaf (velvetleaf [6]; [19])","Barnyardgrass plant response rating (0 to 100 scale, 0 is no effect, 100 is complete control) (barnyardgrass [7])",Barnyardgrass plant response rating (barnyardgrass [7]; [19]),"Plant response rating, Barnyardgrass (barnyardgrass [8])","Plant response rating, Pigweed (pigweed [9]; [18])","Plant response rating, Pigweed (pigweed [9]; [19])",further results
Brc1cnn(-c2ccccc2Oc2ncccn2)c1 [Compound 275],0,20,30,80,90,10,50,15,0,0,0,0,0,60,90,0,0,15,80,90,"Crabgrass, Large plant response rating (0 to 100 scale) (large (Lg) crabgrass [10]): 0; Crabgrass, Large plant response rating (large (Lg) crabgrass [10]; [19]): 70; Plant response rating, Foxtail, Giant (giant foxtail [11]; [18]): 0; Plant response rating, Foxtail, Giant (giant foxtail [11]; [19]): 30; Foxtail, Giant plant response rating (0 to 100 scale) (giant foxtail [12]): 0; Foxtail, Giant plant response rating (giant foxtail [12]; [19]): 70; Plant response rating, Wheat (wheat [13]; [18]): 0; Plant response rating, Wheat (wheat [13]; [19]): 0; Wheat plant response rating (0 to 100 scale) (wheat [14]): 0; Wheat plant response rating (wheat [14]; [19]): 0; Velvetleaf plant response rating (0 to 100 scale) (velvetleaf [15]): 20; Velvetleaf plant response rating (velvetleaf [15]; [19]): 60; Corn plant response rating (0 to 100 scale) (corn [16]): 0; Corn plant response rating (corn [16]; [19]): 0; Plant response rating, Barnyardgrass (barnyardgrass [17]; [18]): 0; Plant response rating, Barnyardgrass (barnyardgrass [17]; [19]): 0"
CNN=Cc1cccc(Oc2ncc(Cl)cn2)c1-n1cc(Br)cn1 [Compound 289],0,20,0,20,100,20,50,0,0,0,0,10,0,10,40,0,20,0,100,100,"Crabgrass, Large plant response rating (0 to 100 scale) (large (Lg) crabgrass [10]): 0; Crabgrass, Large plant response rating (large (Lg) crabgrass [10]; [19]): 10; Plant response rating, Foxtail, Giant (giant foxtail [11]; [18]): 0; Plant response rating, Foxtail, Giant (giant foxtail [11]; [19]): 30; Foxtail, Giant plant response rating (0 to 100 scale) (giant foxtail [12]): 0; Foxtail, Giant plant response rating (giant foxtail [12]; [19]): 10; Plant response rating, Wheat (wheat [13]; [18]): 0; Plant response rating, Wheat (wheat [13]; [19]): 0; Wheat plant response rating (0 to 100 scale) (wheat [14]): 0; Wheat plant response rating (wheat [14]; [19]): 0; Velvetleaf plant response rating (0 to 100 scale) (velvetleaf [15]): 0; Velvetleaf plant response rating (velvetleaf [15]; [19]): 10; Corn plant response rating (0 to 100 scale) (corn [16]): 0; Corn plant response rating (corn [16]; [19]): 0; Plant response rating, Barnyardgrass (barnyardgrass [17]; [18]): 0; Plant response rating, Barnyardgrass (barnyardgrass [17]; [19]): 20"
Clc1cnc(Oc2cccc(-c3cccnc3)c2-n2cc(Br)cn2)nc1 [Compound 290],0,10,0,0,0,0,10,0,0,0,0,10,0,10,30,0,0,0,10,20,"Crabgrass, Large plant response rating (0 to 100 scale) (large (Lg) crabgrass [10]): 0; Crabgrass, Large plant response rating (large (Lg) crabgrass [10]; [19]): 10; Plant response rating, Foxtail, Giant (giant foxtail [11]; [18]): 0; Plant response rating, Foxtail, Giant (giant foxtail [11]; [19]): 10; Foxtail, Giant plant response rating (0 to 100 scale) (giant foxtail [12]): 0; Foxtail, Giant plant response rating (giant foxtail [12]; [19]): 10; Plant response rating, Wheat (wheat [13]; [18]): 0; Plant response rating, Wheat (wheat [13]; [19]): 0; Wheat plant response rating (0 to 100 scale) (wheat [14]): 0; Wheat plant response rating (wheat [14]; [19]): 0; Velvetleaf plant response rating (0 to 100 scale) (velvetleaf [15]): 0; Velvetleaf plant response rating (velvetleaf [15]; [19]): 0; Corn plant response rating (0 to 100 scale) (corn [16]): 0; Corn plant response rating (corn [16]; [19]): 0; Plant response rating, Barnyardgrass (barnyardgrass [17]; [18]): 0; Plant response rating, Barnyardgrass (barnyardgrass [17]; [19]): 0"
CNN=Cc1cccc(Oc2ncc(Cl)cn2)c1-n1cc(Cl)cn1 [Compound 296],0,0,0,0,90,20,20,0,0,0,0,10,0,30,30,0,10,0,30,100,"Crabgrass, Large plant response rating (0 to 100 scale) (large (Lg) crabgrass [10]): 0; Crabgrass, Large plant response rating (large (Lg) crabgrass [10]; [19]): 60; Plant response rating, Foxtail, Giant (giant foxtail [11]; [18]): 0; Plant response rating, Foxtail, Giant (giant foxtail [11]; [19]): 0; Foxtail, Giant plant response rating (0 to 100 scale) (giant foxtail [12]): 0; Foxtail, Giant plant response rating (giant foxtail [12]; [19]): 10; Plant response rating, Wheat (wheat [13]; [18]): 0; Plant response rating, Wheat (wheat [13]; [19]): 20; Wheat plant response rating (0 to 100 scale) (wheat [14]): 0; Wheat plant response rating (wheat [14]; [19]): 0; Velvetleaf plant response rating (0 to 100 scale) (velvetleaf [15]): 0; Velvetleaf plant response rating (velvetleaf [15]; [19]): 10; Corn plant response rating (0 to 100 scale) (corn [16]): 0; Corn plant response rating (corn [16]; [19]): 0; Plant response rating, Barnyardgrass (barnyardgrass [17]; [18]): 0; Plant response rating, Barnyardgrass (barnyardgrass [17]; [19]): 0"
C[Si](C)(C)c1cn(-c2ccccc2Oc2ncc(Cl)cn2)nn1 [Compound 297],–,–,0,–,–,–,–,0,–,–,–,–,0,–,–,–,–,0,–,–,"Plant response rating, Crabgrass, Large (large (Lg) crabgrass [1]; [20]): 30; Pigweed plant response rating (pigweed [2]; [21]): 70; Plant response rating, Morningglory (morningglory [3]; [20]): 30; Morningglory plant response rating (morningglory [4]; [21]): 0; Plant response rating, Corn (corn [5]; [20]): 0; Plant response rating, Velvetleaf (velvetleaf [6]; [20]): 60; Barnyardgrass plant response rating (barnyardgrass [7]; [21]): 10; Plant response rating, Pigweed (pigweed [9]; [20]): 70; Crabgrass, Large plant response rating (large (Lg) crabgrass [10]; [21]): 90; Plant response rating, Foxtail, Giant (giant foxtail [11]; [20]): 10; Foxtail, Giant plant response rating (giant foxtail [12]; [21]): 80; Plant response rating, Wheat (wheat [13]; [20]): 0; Wheat plant response rating (wheat [14]; [21]): 0; Velvetleaf plant response rating (velvetleaf [15]; [21]): 50; Corn plant response rating (corn [16]; [21]): 0; Plant response rating, Barnyardgrass (barnyardgrass [17]; [20]): 10"

# — US9695155B2, “Herbicidal substituted pyrimidinyloxy benzene compounds” (E. I. DU PONT DE NEMOURS AND COMPANY, priority 2013, dated 2017)
